Patent publication US9802927B2, “Oxadiazine compounds and methods of use thereof” (Denali Therapeutics, Inc., priority 2015, dated 2017)

System: Aβ42
Test: In vitro cell screening assay in H4 cells expressing human APP751: Aβ42 by sandwich ELISA
Format: cell-based
Conditions: compounds 0.003-10 μM, incubated overnight (16-18 h), sandwich ELISA of supernatant
Summary of the method: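 Secreted Aβ42 measured by sandwich ELISA, C-terminal-specific capture and 4G8-HRP detection, TMB read at 450 nm, from supernatants of APP751-expressing H4 cells exposed overnight (16-18 h) to 0.003-10 μM compound in Pro293 medium, 0.33% DMSO. Data scaled between DMSO and DAPT controls; EC50 from variable-slope nonlinear regression.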

Compound | EC50 [nM] | EC50 (Homo sapiens) [nM]
COc1ccc2c(C3CON=C(c4ccc(-n5cnc(C)c5)c(OC)n4)N3)cn(C)c2c1 (single isomer, unassigned; (+)) [Example 258B, (+)-5-(6-methoxy-1-methyl-1H-indol-3-yl)-3-(6-methoxy-5-(4-methyl-1H-imidazol-1-yl)pyridin-2-yl)-5,6-dihydro-4H-1,2,4-oxadiazine] | 23.5 | –
COc1nc(C2=NOCC(C3CCS(=O)(=O)CC3)N2)ccc1-n1cnc(C)c1 (single isomer, unassigned; (+)) [Example 177A, (+)-4-(3-(6-methoxy-5-(4-methyl-1H-imidazol-1-yl)pyridin-2-yl)-5,6-dihydro-4H-1,2,4-oxadiazin-5-yl) tetrahydro-2H-thiopyran 1,1-dioxide] | – | > 3000
COc1nc(C2=NOCC(c3ccc(C(F)(F)F)c(F)c3)N2)ccc1-n1cnc(C)c1 (single isomer, unassigned) [Example 121B, 5-(3-fluoro-4-(trifluoromethyl)phenyl)-3-(6-methoxy-5-(4-methyl-1H-imidazol-1-yl)pyridin-2-yl)-5,6-dihydro-4H-1,2,4-oxadiazine] | 21.4 | –
COc1nc(C2=NOCC(c3cn(C)c4ncccc34)N2)ccc1-n1cnc(C)c1 (single isomer, unassigned; (-)) [Example 195A, (−)-3-(6-methoxy-5-(4-methyl-1H-imidazol-1-yl)pyridin-2-yl)-5-(1-methyl-1H-pyrrolo [2,3-b]pyridin-3-yl)-5,6-dihydro-4H-1,2,4-oxadiazine] | 2110 | –
COc1nc(C2=NOCC(c3ccc4sc(C)nc4c3)N2)ccc1-n1cnc(C)c1 (single isomer, unassigned; (-)) [Example 215A, (−)-3-(6-methoxy-5-(4-methyl-1H-imidazol-1-yl)pyridin-2-yl)-5-(2-methylbenzo[d]thiazol-5-yl)-5,6-dihydro-4H-1,2,4-oxadiazine] | 2210 | –
COc1nc(C2=NOCC(c3cn(C)c4cccc(Cl)c34)N2)ccc1-n1cnc(C)c1 (single isomer, unassigned; (-)) [Example 229B, (−)-5-(4-chloro-1-methyl-1H-indol-3-yl)-3-(6-methoxy-5-(4-methyl-1H-imidazol-1-yl)pyridin-2-yl)-5,6-dihydro-4H-1,2,4-oxadiazine] | 24.4 | –
COc1nc(C2=NOC[C@H](c3cc4ccccc4o3)N2)ccc1-n1cnc(C)c1 [Example 4, (R)-5-(Benzofuran-2-yl)-3-(6-methoxy-5-(4-methyl-1H-imidazol-1-yl)pyridin-2-yl)-5,6-dihydro-4H-1,2,4-oxadiazine] | – | 38.4
COc1nc(C2=NOCC(c3cn(C)c4ccc(F)cc34)N2)ccc1-n1cnc(C)c1 (single isomer, unassigned; (+)) [Example 190B, (+)-5-(5-fluoro-1-methyl-1H-indol-3-yl)-3-(6-methoxy-5-(4-methyl-1H-imidazol-1-yl)pyridin-2-yl)-5,6-dihydro-4H-1,2,4-oxadiazine] | 19.5 | –
COc1nc(C2=NOCC(c3sc4ccccc4c3C)N2)ccc1-n1cnc(C)c1 (single isomer, unassigned; (-)) [Example 66A, (−)-3-(6-methoxy-5-(4-methyl-1H-imidazol-1-yl)pyridin-2-yl)-5-(3-methylbenzo [b]thiophen-2-yl)-5,6-dihydro-4H-1,2,4-oxadiazine] | 651 | –
COc1nc(C2=NOCC(c3ccccc3Cl)N2)ccc1-n1cnc(C)c1 (single isomer, unassigned) [Example 136B, 5-(2-chlorophenyl)-3-(6-methoxy-5-(4-methyl-1H-imidazol-1-yl)pyridin-2-yl)-5,6-dihydro-4H-1,2,4-oxadiazine] | 775 | –
COc1nc(C2=NOCC(C3CCCC3)N2)ccc1-n1cnc(C)c1 (single isomer, unassigned; (-)) [Example 171B, (−)-5-cyclopentyl-3-(6-methoxy-5-(4-methyl-1H-imidazol-1-yl)pyridin-2-yl)-5,6-dihydro-4H-1,2,4-oxadiazine] | 107 | –
COc1ccc2c(C3CON=C(c4ccc(-n5cnc(C)c5)c(OC)n4)N3)cn(C)c2c1 (single isomer, unassigned; (-)) [Example 258A, (−)-5-(6-methoxy-1-methyl-1H-indol-3-yl)-3-(6-methoxy-5-(4-methyl-1H-imidazol-1-yl)pyridin-2-yl)-5,6-dihydro-4H-1,2,4-oxadiazine] | 154 | –
COc1nc(C2=NOCC(c3cc4cc(F)ccc4o3)N2)ccc1-n1cnc(C)c1 (single isomer, unassigned; (-)) [Example 84A, (−)-5-(5-fluorobenzofuran-2-yl)-3-(6-methoxy-5-(4-methyl-1H-imidazol-1-yl)pyridin-2-yl)-5,6-dihydro-4H-1,2,4-oxadiazine] | 944 | –
COc1nc(C2=NOCC(c3csc4ccccc34)N2)ccc1-n1cnc(C)c1 (single isomer, unassigned; (-)) [Example 68A, (−)-5-(benzo [b]thiophen-3-yl)-3-(6-methoxy-5-(4-methyl-1H-imidazol-1-yl)pyridin-2-yl)-5,6-dihydro-4H-1,2,4-oxadiazine] | 1090 | –
COc1nc(C2=NOCC(c3cc4c(F)cccc4o3)N2)ccc1-n1cnc(C)c1 (single isomer, unassigned; (+)) [Example 99A, (+)-5-(4-fluorobenzofuran-2-yl)-3-(6-methoxy-5-(4-methyl-1H-imidazol-1-yl)pyridin-2-yl)-5,6-dihydro-4H-1,2,4-oxadiazine] | 856 | –
COc1nc(C2=NOCC(c3cc4c(F)cccc4o3)N2)ccc1-n1cnc(C)c1 (single isomer, unassigned; (-)) [Example 99B, (−)-5-(4-fluorobenzofuran-2-yl)-3-(6-methoxy-5-(4-methyl-1H-imidazol-1-yl)pyridin-2-yl)-5,6-dihydro-4H-1,2,4-oxadiazine] | 25.7 | –
COc1cn(-c2ccc(C3=NOCC(c4cc5cccc(C)c5o4)N3)nc2OC)cn1 (single isomer, unassigned; (+)) [Example 33, (+)-3-(6-methoxy-5-(4-methoxy-1H-imidazol-1-yl)pyridin-2-yl)-5-(7-methylbenzofuran-2-yl)-5,6-dihydro-4H-1,2,4-oxadiazine] | – | 147
COc1nc(C2=NOC[C@H](c3cc4cc(C)ccc4o3)N2)ccc1-n1cnc(C)c1 [Example 10, (R)-3-(6-Methoxy-5-(4-methyl-1H-imidazol-1-yl)pyridin-2-yl)-5-(5-methylbenzofuran-2-yl)-5,6-dihydro-4H-1,2,4-oxadiazine] | – | 16
COc1nc(C2=NOCC(c3cccc(Cl)c3)N2)ccc1-n1cnc(C)c1 (single isomer, unassigned; (-)) [Example 244A, (−)-5-(3-chlorophenyl)-3-(6-methoxy-5-(4-methyl-1H-imidazol-1-yl)pyridin-2-yl)-5,6-dihydro-4H-1,2,4-oxadiazine] | 668 | –
COc1nc(C2=NOCC(c3ccc(F)cc3)N2)ccc1-n1cnc(C)c1 (single isomer, unassigned) [Example 40B, 5-(4-fluorophenyl)-3-(6-methoxy-5-(4-methyl-1H-imidazol-1-yl)pyridin-2-yl)-5,6-dihydro-4H-1,2,4-oxadiazine] | 59.5 | –
COc1nc(C2=NOCC(C3CCC3)N2)ccc1-n1cnc(C)c1 (single isomer, unassigned; (-)) [Example 163B, (−)-5-cyclobutyl-3-(6-methoxy-5-(4-methyl-1H-imidazol-1-yl)pyridin-2-yl)-5,6-dihydro-4H-1,2,4-oxadiazine] | 368 | –
COc1nc(C2=NOCC(c3cc4cccc(C)c4o3)N2C)ccc1-n1cnc(C)c1 (single isomer, unassigned; (+)) [Example 23, (+)-3-(6-Methoxy-5-(4-methyl-1H-imidazol-1-yl)pyridin-2-yl)-4-methyl-5-(7-methylbenzofuran-2-yl)-5,6-dihydro-4H-1,2,4-oxadiazine] | – | 61.9
COc1nc(C2=NOCC(c3cn(C)c4ncc(C(F)(F)F)cc34)N2)ccc1-n1cnc(C)c1 (single isomer, unassigned; (+)) [Example 206B, (+)-3-(6-methoxy-5-(4-methyl-1H-imidazol-1-yl)pyridin-2-yl)-5-(1-methyl-5-(trifluoromethyl)-1H-pyrrolo [2,3-b]pyridin-3-yl)-5,6-dihydro-4H-1,2,4-oxadiazine] | 5 | –
COc1nc(C2=NOCC(c3oc(C)nc3C)N2)ccc1-n1cnc(C)c1 (single isomer, unassigned; (+)) [Example 161B, (+)-5-(2,4-dimethyloxazol-5-yl)-3-(6-methoxy-5-(4-methyl-1H-imidazol-1-yl)pyridin-2-yl)-5,6-dihydro-4H-1,2,4-oxadiazine] | > 3000 | –
COc1nc(C2=NOCC(c3ccc(C(F)(F)F)c(F)c3)N2)ccc1-n1cnc(C)c1 (single isomer, unassigned) [Example 121A, 5-(3-fluoro-4-(trifluoromethyl)phenyl)-3-(6-methoxy-5-(4-methyl-1H-imidazol-1-yl)pyridin-2-yl)-5,6-dihydro-4H-1,2,4-oxadiazine] | > 3000 | –
COc1nc(C2=NOCC(c3ccccn3)N2)ccc1-n1cnc(C)c1 (single isomer, unassigned; (+)) [Example 168A, (+)-3-(6-methoxy-5-(4-methyl-1H-imidazol-1-yl)pyridin-2-yl)-5-(pyridin-2-yl)-5,6-dihydro-4H-1,2,4-oxadiazine] | – | > 3000
COc1nc(C2=NOCC(c3oc4ccccc4c3C)N2)ccc1-n1cnc(C)c1 (stereo not shown) [Example 16B, 3-(6-methoxy-5-(4-methyl-1H-imidazol-1-yl)pyridin-2-yl)-5-(3-methylbenzofuran-2-yl)-5,6-dihydro-4H-1,2,4-oxadiazine] | 16.7 | –
COc1nc(C2=NOCC(c3cc4cccc(F)c4o3)N2)ccc1-n1cnc(C)c1 (single isomer, unassigned; (-)) [Example 89A, (−)-5-(7-fluorobenzofuran-2-yl)-3-(6-methoxy-5-(4-methyl-1H-imidazol-1-yl)pyridin-2-yl)-5,6-dihydro-4H-1,2,4-oxadiazine] | 2340 | –
